In article PMC4321555, “Differential inhibition of Arabidopsis superoxide dismutases by peroxynitrite-mediated tyrosine nitration” (Journal of Experimental Botany, 2014):
Residue numbers refer to the chain shown, from its start.

Tests used:
Assay type in all cases: biochemical
FSD1 = target: T1, FSD1 (Arabidopsis thaliana, UniProt P21276); experiment: NBT-formazan SOD assay (xanthine/xanthine oxidase); details: superoxide generated by xanthine oxidase; 570 nm
T1 sequence (P21276 1-212): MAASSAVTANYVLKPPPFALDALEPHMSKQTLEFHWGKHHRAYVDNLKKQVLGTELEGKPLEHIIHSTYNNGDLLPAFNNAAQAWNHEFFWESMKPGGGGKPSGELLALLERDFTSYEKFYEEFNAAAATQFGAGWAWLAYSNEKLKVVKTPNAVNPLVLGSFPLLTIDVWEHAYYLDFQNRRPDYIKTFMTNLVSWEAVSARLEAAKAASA

FSD2 = target: T2, FSD2 (Arabidopsis thaliana, UniProt Q9LU64); experiment: NBT-formazan SOD assay (xanthine/xanthine oxidase); details: superoxide generated by xanthine oxidase; 570 nm
T2 sequence (Q9LU64 1-305 limits assumed): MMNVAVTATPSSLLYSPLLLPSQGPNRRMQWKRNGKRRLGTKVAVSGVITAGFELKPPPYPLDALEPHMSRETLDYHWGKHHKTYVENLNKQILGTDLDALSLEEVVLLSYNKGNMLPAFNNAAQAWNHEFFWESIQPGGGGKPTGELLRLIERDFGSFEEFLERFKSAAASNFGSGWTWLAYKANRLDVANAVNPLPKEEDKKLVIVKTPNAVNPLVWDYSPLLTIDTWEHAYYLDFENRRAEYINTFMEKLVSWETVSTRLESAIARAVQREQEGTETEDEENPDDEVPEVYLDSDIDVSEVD

[1] = target: T3, FSD3 (FeSOD3; chloroplastic iron SOD3) (Arabidopsis thaliana, UniProt Q9FMX0); experiment: NBT-formazan SOD assay (xanthine/xanthine oxidase); details: superoxide generated by xanthine oxidase; 570 nm
T3 sequence (Q9FMX0 1-263 limits assumed): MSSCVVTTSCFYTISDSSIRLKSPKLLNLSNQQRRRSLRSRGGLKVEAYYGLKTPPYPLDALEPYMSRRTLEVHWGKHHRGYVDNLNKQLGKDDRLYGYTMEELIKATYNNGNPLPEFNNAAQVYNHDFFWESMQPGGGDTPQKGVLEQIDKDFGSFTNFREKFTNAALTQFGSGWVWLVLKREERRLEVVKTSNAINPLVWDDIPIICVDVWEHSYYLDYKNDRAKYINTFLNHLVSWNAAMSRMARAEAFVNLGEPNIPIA

[2] = target: T4, MSD1 (MnSOD; manganese SOD1) (Arabidopsis thaliana, UniProt O81235); experiment: NBT-formazan SOD assay (xanthine/xanthine oxidase); details: superoxide generated by xanthine oxidase; 570 nm
T4 sequence (O81235 1-231): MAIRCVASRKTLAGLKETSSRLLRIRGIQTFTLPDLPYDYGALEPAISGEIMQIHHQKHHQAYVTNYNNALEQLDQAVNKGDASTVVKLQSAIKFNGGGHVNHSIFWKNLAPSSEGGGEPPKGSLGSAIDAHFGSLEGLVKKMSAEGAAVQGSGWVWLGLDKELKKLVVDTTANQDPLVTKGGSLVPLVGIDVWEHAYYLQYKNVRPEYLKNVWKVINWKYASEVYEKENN

CSD2 (Cu/ZnSOD2) = target: T5, CSD2 (Cu/ZnSOD2) (Arabidopsis thaliana, UniProt O78310); experiment: NBT-formazan SOD assay (xanthine/xanthine oxidase); details: superoxide generated by xanthine oxidase; 570 nm
T5 sequence (O78310 1-216 limits assumed): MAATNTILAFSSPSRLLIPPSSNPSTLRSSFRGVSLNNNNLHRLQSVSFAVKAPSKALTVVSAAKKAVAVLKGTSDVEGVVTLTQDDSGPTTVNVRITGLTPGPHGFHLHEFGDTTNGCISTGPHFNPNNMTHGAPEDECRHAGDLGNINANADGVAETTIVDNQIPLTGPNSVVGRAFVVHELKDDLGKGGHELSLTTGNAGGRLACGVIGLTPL

[3] = target: T6, CSD3 (Cu/ZnSOD3; peroxisomal copper/zinc SOD3) (Arabidopsis thaliana, UniProt Q9FK60); experiment: NBT-formazan SOD assay (xanthine/xanthine oxidase); details: superoxide generated by xanthine oxidase; 570 nm
T6 sequence (Q9FK60 1-164): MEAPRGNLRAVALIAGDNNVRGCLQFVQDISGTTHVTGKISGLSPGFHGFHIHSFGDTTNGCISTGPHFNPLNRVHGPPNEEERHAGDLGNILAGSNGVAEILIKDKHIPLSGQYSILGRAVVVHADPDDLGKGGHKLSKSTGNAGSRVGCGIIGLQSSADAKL

CSD1 (Cu/ZnSOD1) = target: T7, CSD1 (Cu/ZnSOD1) (Arabidopsis thaliana, UniProt P24704); experiment: NBT-formazan SOD assay (xanthine/xanthine oxidase); details: superoxide generated by xanthine oxidase; 570 nm
T7 sequence (P24704 1-152): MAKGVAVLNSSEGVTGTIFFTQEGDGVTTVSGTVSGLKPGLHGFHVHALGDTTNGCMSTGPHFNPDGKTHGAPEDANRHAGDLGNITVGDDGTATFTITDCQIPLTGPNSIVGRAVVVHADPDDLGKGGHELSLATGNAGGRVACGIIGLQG

[4] = target: T6, CSD3 (Cu/ZnSOD3; peroxisomal copper/zinc SOD3); experiment: SOD activity after peroxynitrite treatment (cytochrome c reduction); details: covalent (tyrosine nitration, Tyr115); 20 min, RT, dark; potassium phosphate pH 8.0
[5] = target: T3, FSD3 (FeSOD3; chloroplastic iron SOD3); experiment: as above; details: covalent (tyrosine nitration); 20 min, RT, dark; potassium phosphate pH 8.0
[6] = target: T4, MSD1 (MnSOD; manganese SOD1); experiment: as above; details: covalent (tyrosine nitration, mainly Tyr63); 20 min, RT, dark; potassium phosphate pH 8.0
[7] = target: T8, MSD1 (MnSOD; manganese SOD1) (Arabidopsis thaliana, UniProt O81235, Y63F); experiment: SOD activity after peroxynitrite treatment; details: covalent (tyrosine nitration); 20 min, RT, dark; potassium phosphate pH 8.0
T8 sequence (O81235 1-231 Y63F): T4 sequence (O81235 1-231) with Y63F

## [O]O [superoxide]
FSD1
  NBT-formazan SOD assay (xanthine/xanthine oxidase): The activity of the purified, recombinant SODs was determined using the nitroblue tetrazolium (NBT)–formazan method
FSD2
  NBT-formazan SOD assay (xanthine/xanthine oxidase): The activity of the purified, recombinant SODs was determined using the nitroblue tetrazolium (NBT)–formazan method
[1]
  NBT-formazan SOD assay (xanthine/xanthine oxidase): The activity of the purified, recombinant SODs was determined using the nitroblue tetrazolium (NBT)–formazan method
[2]
  NBT-formazan SOD assay (xanthine/xanthine oxidase): The activity of the purified, recombinant SODs was determined using the nitroblue tetrazolium (NBT)–formazan method
CSD2 (Cu/ZnSOD2)
  NBT-formazan SOD assay (xanthine/xanthine oxidase): The activity of the purified, recombinant SODs was determined using the nitroblue tetrazolium (NBT)–formazan method
[3]
  NBT-formazan SOD assay (xanthine/xanthine oxidase): The activity of the purified, recombinant SODs was determined using the nitroblue tetrazolium (NBT)–formazan method
CSD1 (Cu/ZnSOD1)
  NBT-formazan SOD assay (xanthine/xanthine oxidase): The activity of the purified, recombinant SODs was determined using the nitroblue tetrazolium (NBT)–formazan method

## O=NOO [peroxynitrite]
[4]
  % remaining activity at 500 μM: 65%
[5]
  % remaining activity at 500 μM: 65%
[6]
  % inhibition at 500 μM: ~ 90%
[7]
  % inhibition at 500 μM: 30%
